Measurements published in article PMC3164379, “Three New Compounds from Aspergillus terreus PT06-2 Grown in a High Salt Medium” (Marine Drugs, 2011).
Converted amounts (≈) assume the structure as drawn. Where two headings read alike, the source gives them in different places.

Assays:
[1] = system: BEL-7402 cell line; experiment: in vitro; conditions: human
Experimental: (§1) Cytotoxicity against HL-60 and BEL-7402 cancer cell lines and confluent MDCK cells was assayed by the MTT method [28]. Cell lines were grown in RPMI-1640 supplemented with 10% FBS under a humidified atmosphere of 5% CO2 and 95% air at 37 °C. […] Then, 2 μL of the test solutions (in MeOH) were added to each well and further incubated for 72 h. The MTT solution (20 μL, 5 mg/mL in IPMI-1640 medium) was then added to each well and incubated for 4 h. Old medium containing MTT (150 μL) was then gently replaced by DMSO and pipetted to dissolve any formazan crystals formed. Absorbance was then determined on a SPECTRA MAX PLUS plate reader at 540 nm. The CC50 was calculated as the compound concentration necessary to reduce cell viability by 50%.

[2] = system: HL-60 cell line; experiment: in vitro; conditions: human
Experimental: as §1

[3] = system: Enterobacter aerogenes; experiment: Antimicrobial activity, agar dilution method; conditions: for MIC Enterobacter aerogenes: agar dilution, paper disks, 24 h incubation, 37 °C; for MIC: Klebsiella aerogenes, 24 h, read-out: MIC Enterobacter aerogenes
Experimental: (§2) Antimicrobial activity against E. aerogenes, P. aeruginosa, S. aureus and C. albicans was evaluated using an agar dilution method [29]. The tested strains were cultivated in LB agar plates for bacteria and in YPD agar plates for C. albicans, at 37 °C. Compounds and positive controls were dissolved in 5% DMSO-H2O at different concentrations from 1000 to 62.5 μg/mL and then from 50 to 0.78 μg/mL, using continuous 2-fold dilution. The test solutions (5 μL) were absorbed onto paper disks (5 mm diameter) and placed on the assay plates. After 24 h incubation, zones of inhibition (mm in diameter) were recorded. The minimum inhibitory concentrations were defined as the lowest concentration at which an inhibition zone could be observed.

[4] = system: Pseudomonas aeruginosa; experiment: Antimicrobial activity, agar dilution method; conditions: for MIC Pseudomonas aeruginosa: agar dilution, paper disks, 24 h incubation, 37 °C; for MIC: Pseudomonas aeruginosa, 24 h
Experimental: as §2

[5] = system: Staphylococcus aureus; experiment: Antimicrobial activity, agar dilution method; conditions: for MIC Staphylococcus aureus: agar dilution, paper disks, 24 h incubation, 37 °C; for MIC: Staphylococcus aureus, 24 h, read-out: MIC Staphylococcus aureus
Experimental: as §2

[6] = system: Candida albicans; experiment: Antimicrobial activity, agar dilution method; conditions: for MIC: Candida albicans, 24 h, read-out: MIC Candida albicans
Experimental: as §2

[7] = system: influenza virus (A/Puerto Rico/8/34 (H1N1), PR/8); experiment: Antiviral activity against H1N1, CPE inhibition assay; assay type: cell-based; conditions: read-out: IC50 anti-H1N1 activity
[8] = Cytotoxicity against confluent MDCK cells by MTT method; assay type: cell-based; conditions: dog, read-out: CC50 (50% cytotoxicity concentration)
Experimental: as §1

[9] = read-out: MIC Pseudomonas aeruginosa, agar dilution, paper disks, 24 h incubation, 37 °C

Row | Structure (SMILES) | MIC Pseudomonas aeruginosa [4] | MIC [3] | MIC [4, 9] | MIC [5] | MIC [6] | other results
1 | COc1cc([C@@H]2c3cc4c(cc3[C@@H](O[C@@H]3O[C@@H]5CO[C@@H](C)O[C@H]5[C@H](O)[C@H]3O)[C@H]3COC(=O)[C@H]23)OCO4)cc(OC)c1O [Vp-16, Etoposide, reference compound] |  |  |  |  |  | IC50 at 72 h [1]: 0.83 µM; IC50 at 72 h [2]: 0.042 µM
2 | C/C=C/C1=CC(=O)[C@@H](O)[C@@H]1O [Compound 15, (+)-terrein] | >100 µM |  |  |  |  | MIC Enterobacter aerogenes [3]: >100 µM; MIC Staphylococcus aureus [5]: >100 µM; MIC Candida albicans ([6]; agar dilution, YPD agar, paper disks, 24 h incubation, 37 °C): >100 µM
3 | COC(=O)c1cccc(O)c1-n1c(-c2cccnc2)nc2ccccc2c1=O [Compound 2, methyl 3-hydroxy-2-(4-oxo-2-(pyridin-3-yl)quinazolin-3(4H)-yl)benzoate] |  | 33.5 µM (≈ 12.5 µg/mL) | > 100 µM | > 100 µM | > 100 µM | 
4 | COC(=O)c1cccc(O)c1NC(=O)c1ccccc1NC(=O)c1cccnc1 [Compound 1, methyl 3-hydroxy-2-(2-(nicotinamido)benzamido)benzoate] | >100 µM | > 100 µM | 63.9 µM (≈ 25 µg/mL) | 63.9 µM (≈ 25 µg/mL) | > 100 µM | 
5 | CC(O)C(=O)O.O=C(O)c1cn(C2CC2)c2cc(N3CCNCC3)c(F)cc2c1=O [Ciprofloxacinlactate, reference compound] | 30 µM |  |  |  |  | MIC Enterobacter aerogenes [3]: 1 µM; MIC Staphylococcus aureus [5]: 1 µM
6 | COC(=O)c1cc(OC)c(OC)c(OC)c1NC(=O)c1ccccc1NC(=O)c1cccnc1 [Compound 4, methyl 3,4,5-trimethoxy-2-(2-(nicotinamido)benzamido)benzoate] |  | > 100 µM | > 100 µM | 52.4 µM (≈ 24.4 µg/mL) | > 100 µM | 
7 | COC(=O)[C@]1(Cc2ccc(O)c(CC=C(C)C)c2)OC(=O)C(O)=C1c1ccc(O)cc1 [Compound 5, butyrolactone I] |  |  |  |  |  | IC50 ([7]; MDCK, 48 h): 143 µM; CC50 at 72 h [8]: 976 µM; IC50 at 72 h [2]: 57.5 µM
8 | COC(=O)[C@]1(Cc2ccc(O)c(CCC(C)(C)O)c2)OC(=O)C(O)=C1c1ccc(O)cc1 [Compound 3, (R)-methyl 4-hydroxy-2-(4-hydroxy-3-(3-hydroxy-3-methylbutyl)benzyl)-3-(4-hydroxyphenyl)-5-oxo-2,5-dihydrofuran-2-carboxylate] |  | > 100 µM |  | > 100 µM | > 100 µM | MIC ([4]; read-out: MIC Pseudomonas aeruginosa): > 100 µM
9 | NC(=O)c1ncn([C@@H]2O[C@H](CO)[C@@H](O)[C@H]2O)n1 [Ribavirin, reference compound] |  |  |  |  |  | IC50 ([7]; CPE inhibition in MDCK cells, 48 h post-infection): 101 µM
10 | CC(=O)N1CCN(c2ccc(OCC3COC(Cn4ccnc4)(c4ccc(Cl)cc4Cl)O3)cc2)CC1 (stereo not shown) [Ketoconazole, reference compound] |  |  |  |  | 5 µM (≈ 2.66 µg/mL) | 
